{
  "source": "patent US9034868B2",
  "about": "(priority 2008, dated 2015)",
  "key": {"StxB [1]": {"system": "StxB", "assay_type": "cell-based"}, "StxB [2]": {"system": "StxB", "assay_type": "cell-based", "details": "20 μM, 45 min at 37° C."}, "CTxB": {"system": "CTxB", "assay_type": "cell-based", "details": "20 μM"}, "125I-EGF": {"system": "125I-EGF", "assay_type": "cell-based, human"}, "[3]": {"system": "vesicular stomatitis virus G protein (VSVG)", "assay_type": "cell-based, human"}, "StxB [4]": {"system": "StxB", "assay_type": "cell-based, human"}, "StxB [5]": {"system": "StxB", "assay_type": "cell-based", "details": "20 μM, 30 min, 37° C."}, "transferrin (Tf)": {"system": "transferrin (Tf)", "assay_type": "cell-based", "details": "20 μM, 30 min, 37° C."}, "CI-MPR": {"system": "CI-MPR", "assay_type": "cell-based, human"}, "TGN46": {"system": "TGN46", "assay_type": "cell-based, human"}, "StxB [6]": {"system": "StxB", "assay_type": "cell-based, human", "remark": "listed apart in the source"}},
  "note": "Entries after “also recorded” stand apart in the source; their conditions may differ.",
  "data": [
    {"smiles": "CCC(=O)N1CC(=O)Nc2ccc(Br)cc2C1c1ccccc1", "note": "(stereo not drawn) [Compound 193, 7-bromo-5-phenyl-4-propionyl-4,5-dihydro-1H-benzo[e][1,4]diazepin-2(3H)-one]", "values": [
      {"measurement": "reduction of retrograde transport of STxB to the TGN", "setting": "StxB [1]", "value": 90, "unit": "%"},
      {"measurement": "reduction of transport of StxB to the TGN, 4 h after internalization", "setting": "StxB [1]", "value": 50, "unit": "%"},
      {"measurement": "cellular localisation of STxB", "setting": "StxB [2]", "value": "accumulation"},
      {"measurement": "cellular localisation of CtxB", "setting": "CTxB", "value": "accumulation"},
      {"measurement": "effect on lysosomal degradation of 125I-EGF", "setting": "125I-EGF", "value": "no effect"},
      {"measurement": "anterograde transport of GFP-VSVGts045", "setting": "[3]", "value": "not significantly reduced"},
      {"measurement": "amount of bound StxB on cells", "setting": "StxB [4]", "value": "not reduced"},
      {"measurement": "endocytosis of StxB", "setting": "StxB [5]", "value": "not altered"},
      {"measurement": "endocytosis of transferrin (Tf)", "setting": "transferrin (Tf)", "value": "not altered"},
      {"measurement": "steady-state localization of CI-MPR", "setting": "CI-MPR", "value": "similar"},
      {"measurement": "steady-state localization and transport of TGN46", "setting": "TGN46", "value": "similar; also recorded: not been observed a distinct inhibition; also recorded: did not observe a pronounced effect; also recorded: do not impact distinctly"},
      {"measurement": "retrograde transport of StxB to the TGN", "setting": "StxB [6]", "value": "stark reduction"},
      {"measurement": "inhibition of Stx cytotoxicity", "setting": "Stx1 and Stx2", "value": 100, "unit": "fold"},
      {"measurement": "effect on protein biosynthesis", "setting": "HeLa-cells", "value": "only minor"},
      {"measurement": "apparent side effects", "setting": "THP1-cells", "value": "did not cause any apparent side effects"}
    ]}
  ]
}
